Measured values from the supplement of paper PMC10307832.

Columns and labels:
Assay in all cases: relative viability (nuclei count vs DMSO), 5 days (fraction); higher = more cells survive
Elesclomol = compound: CN(NC(=O)CC(=O)NN(C)C(=S)c1ccccc1)C(=S)c1ccccc1 [Elesclomol]
Summary of the method: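 Viability is treated-well nuclei as a fraction of vehicle-well nuclei, reported as the median across plates. Before counting, lung cancer cell lines were kept overnight at 37 °C in 1536-well plates, pinned with five √10-spaced library-drug doses on vehicle-anchored plates, and left 5 days without medium change, then fixed, permeabilised and Hoechst-stained in one step, imaged at 4× and counted by MetaXpress. A plate passed only if control CV was below 25% and at least one doubling occurred.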

Elesclomol + Navitoclax = compound: CN(NC(=O)CC(=O)NN(C)C(=S)c1ccccc1)C(=S)c1ccccc1 [Elesclomol] + CC1(C)CCC(c2ccc(Cl)cc2)=C(CN2CCN(c3ccc(C(=O)NS(=O)(=O)c4ccc(N[C@H](CCN5CCOCC5)CSc5ccccc5)c(S(=O)(=O)C(F)(F)F)c4)cc3)CC2)C1 [Navitoclax] (partner 0.5 µM)
Summary of the method: (§1)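 The day after seeding in 1536-well plates, lung cancer cell lines were treated by pin tool with a single drug, or with a fixed anchor-drug dose together with five library-drug doses (not always all listed) in √10 steps. After 5 days, a combined fix-and-stain solution (final 0.05% Triton X-100, 1% formaldehyde, 1 ug/ml Hoechst) was added. Nuclei counted on 4× images gave relative viability as treated counts over vehicle counts, reported as the median of duplicate plates.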

Elesclomol + Linsitinib = compound: CN(NC(=O)CC(=O)NN(C)C(=S)c1ccccc1)C(=S)c1ccccc1 [Elesclomol] + C[C@]1(O)C[C@@H](c2nc(-c3ccc4ccc(-c5ccccc5)nc4c3)c3c(N)nccn32)C1 [Linsitinib] (partner 1 µM)
Summary of the method: as §1

Elesclomol + Bortezomib = compound: CN(NC(=O)CC(=O)NN(C)C(=S)c1ccccc1)C(=S)c1ccccc1 [Elesclomol] + CC(C)C[C@H](NC(=O)[C@H](Cc1ccccc1)NC(=O)c1cnccn1)B(O)O [Bortezomib] (partner 0.002 µM)
Summary of the method: as §1

Elesclomol + Crizotinib = compound: CN(NC(=O)CC(=O)NN(C)C(=S)c1ccccc1)C(=S)c1ccccc1 [Elesclomol] + C[C@@H](Oc1cc(-c2cnn(C3CCNCC3)c2)cnc1N)c1c(Cl)ccc(F)c1Cl [Crizotinib] (partner 1 µM)
Summary of the method: as §1

Elesclomol + Pictilisib = compound: CN(NC(=O)CC(=O)NN(C)C(=S)c1ccccc1)C(=S)c1ccccc1 [Elesclomol] + CS(=O)(=O)N1CCN(Cc2cc3nc(-c4cccc5[nH]ncc45)nc(N4CCOCC4)c3s2)CC1 [Pictilisib] (partner 1 µM)
Summary of the method: as §1

Elesclomol + Lapatinib = compound: CN(NC(=O)CC(=O)NN(C)C(=S)c1ccccc1)C(=S)c1ccccc1 [Elesclomol] + CS(=O)(=O)CCNCc1ccc(-c2ccc3ncnc(Nc4ccc(OCc5cccc(F)c5)c(Cl)c4)c3c2)o1 [Lapatinib] (partner 2 µM)
Summary of the method: as §1

Elesclomol + Foretinib = compound: CN(NC(=O)CC(=O)NN(C)C(=S)c1ccccc1)C(=S)c1ccccc1 [Elesclomol] + COc1cc2c(Oc3ccc(NC(=O)C4(C(=O)Nc5ccc(F)cc5)CC4)cc3F)ccnc2cc1OCCCN1CCOCC1 [Foretinib] (partner 0.25 µM)
Summary of the method: as §1

Elesclomol + Olaparib = compound: CN(NC(=O)CC(=O)NN(C)C(=S)c1ccccc1)C(=S)c1ccccc1 [Elesclomol] + O=C(c1cc(Cc2n[nH]c(=O)c3ccccc23)ccc1F)N1CCN(C(=O)C2CC2)CC1 [Olaparib] (partner 8 µM)
Summary of the method: as §1

Elesclomol + Alpelisib = compound: CN(NC(=O)CC(=O)NN(C)C(=S)c1ccccc1)C(=S)c1ccccc1 [Elesclomol] + Cc1nc(NC(=O)N2CCC[C@H]2C(N)=O)sc1-c1ccnc(C(C)(C)C(F)(F)F)c1 [Alpelisib] (partner 2 µM)
Summary of the method: as §1

Cell Line	relative viability (Elesclomol; 0.003162 µM)	relative viability (Elesclomol; 0.01 µM)	relative viability (Elesclomol; 0.03162 µM)	relative viability (Elesclomol; 0.1 µM)	relative viability (Elesclomol + Navitoclax; first compound 0.003162 µM)	relative viability (Elesclomol + Navitoclax; first compound 0.01 µM)	relative viability (Elesclomol + Navitoclax; first compound 0.03162 µM)	relative viability (Elesclomol + Navitoclax; first compound 0.1 µM)	relative viability (Elesclomol + Linsitinib; first compound 0.003162 µM)	relative viability (Elesclomol + Linsitinib; first compound 0.01 µM)	relative viability (Elesclomol + Linsitinib; first compound 0.03162 µM)	relative viability (Elesclomol + Linsitinib; first compound 0.1 µM)	relative viability (Elesclomol + Bortezomib; first compound 0.003162 µM)	relative viability (Elesclomol + Bortezomib; first compound 0.01 µM)	relative viability (Elesclomol + Bortezomib; first compound 0.03162 µM)	relative viability (Elesclomol + Bortezomib; first compound 0.1 µM)	relative viability (Elesclomol + Crizotinib; first compound 0.003162 µM)	relative viability (Elesclomol + Crizotinib; first compound 0.01 µM)	relative viability (Elesclomol + Crizotinib; first compound 0.03162 µM)	relative viability (Elesclomol + Crizotinib; first compound 0.1 µM)	relative viability (Elesclomol + Pictilisib; first compound 0.003162 µM)	relative viability (Elesclomol + Pictilisib; first compound 0.01 µM)	relative viability (Elesclomol + Pictilisib; first compound 0.03162 µM)	relative viability (Elesclomol + Pictilisib; first compound 0.1 µM)	relative viability (Elesclomol + Lapatinib; first compound 0.003162 µM)	relative viability (Elesclomol + Lapatinib; first compound 0.01 µM)	relative viability (Elesclomol + Lapatinib; first compound 0.03162 µM)	relative viability (Elesclomol + Lapatinib; first compound 0.1 µM)	relative viability (Elesclomol + Foretinib; first compound 0.003162 µM)	relative viability (Elesclomol + Foretinib; first compound 0.01 µM)	relative viability (Elesclomol + Foretinib; first compound 0.03162 µM)	relative viability (Elesclomol + Foretinib; first compound 0.1 µM)	relative viability (Elesclomol + Olaparib; first compound 0.003162 µM)	relative viability (Elesclomol + Olaparib; first compound 0.01 µM)	relative viability (Elesclomol + Olaparib; first compound 0.03162 µM)	relative viability (Elesclomol + Olaparib; first compound 0.1 µM)	relative viability (Elesclomol + Alpelisib; first compound 0.003162 µM)	relative viability (Elesclomol + Alpelisib; first compound 0.01 µM)	relative viability (Elesclomol + Alpelisib; first compound 0.03162 µM)	relative viability (Elesclomol + Alpelisib; first compound 0.1 µM)
Calu-6	0.768	0.317	0.304	0.138	0.476	0.166	0.122	0.0729	0.737	0.223	0.285	0.153	0.787	0.322	0.16	0.155	0.501	0.222	0.247	0.121	0.573	0.239	0.164	0.111	0.602	0.276	0.3	0.12	0.511	0.15	0.0883	0.0356	0.477	0.219	0.177	0.121	0.727	0.243	0.229	0.127
EBC-1	0.983	0.74	0.506	0.349	0.374	0.228	0.146	0.132	0.892	0.614	0.484	0.227	0.497	0.436	0.208	0.156	0.18	0.199	0.151	0.135	0.335	0.17	0.156	0.148	0.239	0.183	0.177	0.157	0.11	0.1	0.0784	0.0763	0.655	0.544	0.487	0.291	0.733	0.354	0.268	0.206
